Laboratory results from patent US12391712B2, “Phosphate derivatives of RORgamma modulators and uses thereof” (GENFIT, priority 2019, dated 2025).
In brackets after ≈: the same amount, converted by molar mass.

Tests used:
[1] = Solubility in phosphate buffer pH=7.4; format: physicochemical; conditions: for solubility at 24 h: aqueous buffer, thermodynamic from solid; for fold more soluble compared to unphosphated analogue / Solubility ratio: phosphate buffer pH=7.4; for Solubility ratio: phosphate derivative / unphosphated counterpart
Experimental: General procedure: The test compound was solubilized in phosphate buffer pH=7.4 at a given concentration (test concentration). The mixture was maintained under vigorous stirring for 24 hours at room temperature. In case a insoluble solid appeared, it was removed by centrifugation and the concentration of the test compound in the solution was determined by LC-MS/MS using appropriate methods.

[2] = Stability in water at room temperature; format: physicochemical; conditions: 5 mg/mL in water
Experimental: General procedure: compound 2 (Cpd. 2) according to the invention was dissolved in water in order to obtain a 5 mg/mL concentration. The solution was stirred for 7 days at room temperature. Compound 2 was quantified at different time points (0, 5 days and 7 days) by UPLC/MS using appropriate method.
Results are expressed as percentage of initial signal area for Cpd.2 (time point (1-day).

[3] = Metabolic stability (hydrolysis) in bronchoalveolar lavage fluid; format: in vitro ADME, human
Experimental: General procedure: human bronchoalveolar lavage fluid (hBALf) was purchased from BiolVT. Sample was collected from an individual donor. The only known information provided for the donor were age and gender. Information regarding the health status of the donor was not known.
The hydrolysis of compound 2 was tested at the concentration of 1 μM and 10 μM for 120 minutes (time points 5, 15, 30, 60 and 120 minutes). Quantification of the compound was then carried out by LC-MS/MS using appropriate methods.

[4] = phosphate buffer pH=7.4, stirring 24 hours at room temperature, LC-MS/MS

Structure (SMILES)	solubility at 24 h [1, 4]	Solubility ratio [1]	other results
Cc1ccc(C(NC(=O)C2(c3ccc4[nH]cc(CCOP(=O)([O-])[O-])c4c3)CC2)c2ccc(C)o2)c(C)c1.[Na+].[Na+] (centres unmarked) [Cpd.2, disodium 2-[5-(1-{[(2,4-dimethylphenyl)(5-methylfuran-2-yl)methyl]carbamoyl}cyclopropyl)-1H-indol-3-yl]ethyl phosphate]	143000 µg/mL	1 588	fold more soluble compared to unphosphated analogue [1]: at least 1500 fold; percentage of initial signal area for Cpd.2 (stability in water) ([2]; time point 0 days): 100%; percentage of initial signal area for Cpd.2 (stability in water) ([2]; time point 5 days): 98%; percentage of initial signal area for Cpd.2 (stability in water) ([2]; time point 7 days): 98%; Cpd.2 quantification in hBALf, percentage of initial signal area ([3]; 1 μM, time point 0 min): 100%; Cpd.2 quantification in hBALf, percentage of initial signal area ([3]; 1 μM, time point 5 min): 16.46%; Cpd.2 quantification in hBALf, percentage of initial signal area ([3]; 1 μM, time point 15 min): 1.84%; Cpd.2 quantification in hBALf, percentage of initial signal area ([3]; 1 μM, time point 30 min): 0.57%; Cpd.2 quantification in hBALf, percentage of initial signal area ([3]; 1 μM, time point 60 min): 0.28%; Cpd.2 quantification in hBALf, percentage of initial signal area ([3]; 1 μM, time point 120 min): 0.19%; Cpd.2 quantification in hBALf, percentage of initial signal area ([3]; 10 μM, time point 0 min): 100%; Cpd.2 quantification in hBALf, percentage of initial signal area ([3]; 10 μM, time point 5 min): 14.98%; Cpd.2 quantification in hBALf, percentage of initial signal area ([3]; 10 μM, time point 15 min): 4.27%; Cpd.2 quantification in hBALf, percentage of initial signal area ([3]; 10 μM, time point 30 min): 1.38%; Cpd.2 quantification in hBALf, percentage of initial signal area ([3]; 10 μM, time point 60 min): 0.49%; Cpd.2 quantification in hBALf, percentage of initial signal area ([3]; 10 μM, time point 120 min): 0.25%
Cc1ccc(C(NC(=O)C2(c3ccc4[nH]cc(CCOP(=O)([O-])[O-])c4c3)CC2)c2cccc(Cl)c2)c(C)c1.[Na+].[Na+] (centres unmarked) [Cpd.8, disodium 2-[5-(1-{[(3-chlorophenyl)(2,4-dimethylphenyl)methyl]carbamoyl}cyclopropyl)-1H-indol-3-yl]ethyl phosphate]	> 10000 µg/mL	≥100 000	fold more soluble compared to unphosphated analogue [1]: more than 100 000 fold
Cc1ccc(C(NC(=O)C2(c3ccc4[nH]cc(CCOP(=O)([O-])[O-])c4c3)CC2)C2CC2)c(C)c1.[Na+].[Na+] (centres unmarked) [Cpd.14, disodium 2-[5-(1-{[cyclopropyl(2,4-dimethylphenyl)methyl]carbamoyl}cyclopropyl)-1H-indol-3-yl]ethyl phosphate]	> 70800 µg/mL	≥5 949	
Cc1ccc(C(NC(=O)C2(c3ccc4[nH]cc(CCOP(=O)([O-])[O-])c4c3)CC2)c2ccccc2)c(N2CCOCC2)c1.[Na+].[Na+] (centres unmarked) [Cpd.16, disodium 2-{5-[1-({[4-methyl-2-(morpholin-4-yl)phenyl](phenyl)methyl}carbamoyl)cyclopropyl]-1H-indol-3-yl}ethyl phosphate]	3640 µg/mL	52 057	
Cc1noc(C)c1C(NC(=O)C1(c2ccc3[nH]cc(CCOP(=O)([O-])[O-])c3c2)CC1)c1ccccc1.[Na+].[Na+] (centres unmarked) [Cpd.18, disodium 2-[5-(1-{[(dimethyl-1,2-oxazol-4-yl) (phenyl)methyl]carbamoyl}cyclopropyl)-1H-indol-3-yl] ethyl phosphate]		≥911	Solubility [1, 4]: >71350 µg/mL
Cc1ccc(C(NC(=O)C2(c3ccc4[nH]cc(CCO)c4c3)CC2)c2ccc(C)o2)c(C)c1 (centres unmarked) [Cpd.A, N-[(2,4-dimethylphenyl)(5-methylfuran-2-yl)methyl]-1-[3-(2-hydroxyethyl)-1H-indol-5-yl]cyclopropane-1-carboxamide, reference compound]	90 µg/mL (≈ 203 µM)		
Cc1ccc(C(NC(=O)C2(c3ccc4[nH]cc(CCO)c4c3)CC2)c2cccc(Cl)c2)c(C)c1 (centres unmarked) [Ex.4a, N-[(3-chlorophenyl)(2,4-dimethylphenyl)methyl]-1-[3-(2-hydroxyethyl)-1H-indol-5-yl]cyclopropane-1-carboxamide]	0.1 µg/mL (≈ 0.211 µM)		
Cc1ccc(C(NC(=O)C2(c3ccc4[nH]cc(CCO)c4c3)CC2)c2ccccc2)c(N2CCOCC2)c1 (centres unmarked) [Ex.8a, 1-[3-(2-hydroxyethyl)-1H-indol-5-yl]-N-{[4-methyl-2-(morpholin-4-yl)phenyl](phenyl)methyl}cyclopropane-1-carboxamide]	0.07 µg/mL (≈ 0.137 µM)		

Further lines, with some results ahead:

solubility at 24 h [1, 4]	Solubility ratio [1]	Structure (SMILES)	other results
11200 µg/mL	7 000	COc1cc(C)ccc1C(NC(=O)C1(c2ccc3[nH]cc(CCOP(=O)([O-])[O-])c3c2)CC1)c1ccccc1.[Na+].[Na+] (centres unmarked) [Cpd.4, disodium 2-[5-(1-{[(2-methoxy-4-methylphenyl)(phenyl)methyl]carbamoyl}cyclopropyl)-1H-indol-3-yl]ethyl phosphate]	
> 62700 µg/mL	≥12 000	Cc1ccc(C(NC(=O)C2(c3ccc4[nH]cc(CCOP(=O)(O)O)c4c3)CC2)c2cccc(C)n2)c(C)c1.[Na].[Na] (centres unmarked) [Cpd.6, disodium {2-[5-(1-{[(2,4-dimethyl phenyl)(6-methylpyridin-2-yl)methyl]carbamoyl}cyclopropyl)-1H-indol-3-yl]ethoxy} phosphonic acid]	
> 50400 µg/mL	≥13513	COc1ccc(C(NC(=O)C2(c3ccc4[nH]cc(CCOP(=O)([O-])[O-])c4c3)CC2)c2ccccc2)c(C)c1.[Na+].[Na+] (centres unmarked) [Cpd.10, disodium 2-[5-(1-{[(4-methoxy-2-methylphenyl)(phenyl)methyl]carbamoyl}cyclopropyl)-1H-indol-3-yl]ethyl phosphate]	
1.6 µg/mL (≈ 3.52 µM)		COc1cc(C)ccc1C(NC(=O)C1(c2ccc3[nH]cc(CCO)c3c2)CC1)c1ccccc1 (centres unmarked) [Ex.2a, 1-[3-(2-hydroxyethyl)-1H-indol-5-yl]-N-[(2-methoxy-4-methylphenyl)(phenyl)methyl]cyclopropane-1-carboxamide]	
5.2 µg/mL (≈ 11.5 µM)		Cc1ccc(C(NC(=O)C2(c3ccc4[nH]cc(CCO)c4c3)CC2)c2cccc(C)n2)c(C)c1 (centres unmarked) [Ex.3a, N-[(2,4-dimethylphenyl)(6-methylpyridin-2-yl)methyl]-1-[3-(2-hydroxyethyl)-1H-indol-5-yl]cyclo-propane-1-carboxamide]	
3.7 µg/mL (≈ 8.14 µM)		COc1ccc(C(NC(=O)C2(c3ccc4[nH]cc(CCO)c4c3)CC2)c2ccccc2)c(C)c1 (centres unmarked) [Ex.5a, 1-[3-(2-hydroxyethyl)-1H-indol-5-yl]-N-[(4-methoxy-2-methylphenyl)(phenyl)methyl]cyclopropane-1-carboxamide]	
11.9 µg/mL (≈ 29.6 µM)		Cc1ccc(C(NC(=O)C2(c3ccc4[nH]cc(CCO)c4c3)CC2)C2CC2)c(C)c1 (centres unmarked) [Ex.7a, N-[cyclopropyl(2,4-dimethylphenyl)methyl]-1-[3-(2-hydroxyethyl)-1H-indol-5-yl]cyclopropane-1-carboxamide]	
78.3 µg/mL (≈ 182 µM)		Cc1noc(C)c1C(NC(=O)C1(c2ccc3[nH]cc(CCO)c3c2)CC1)c1ccccc1 (centres unmarked) [Ex.9d, N-[(dimethyl-1,2-oxazol-4-yl)(phenyl)methyl]-1-[3-(2-hydroxyethyl)-1H-indol-5-yl]cyclopropane-1-carboxamide]	
